Data taken from patent US20240425855A1, “NUCLEIC ACID-[…] RNAS FOR TRIGGER-[…]” (Hoffmann-La Roche Inc., priority 2021, published 2024).

What was measured:
[1] = system: K4/K19 tetracycline-responsive ribozyme-switch; experiment: K4/K19 tetracycline-responsive ribozyme-switch controlling GFP expression in stably transfected cells (FACS); assay type: cell-based, CHO; conditions: 50 μM tetracycline concentration; GFP readout
Description: The method according to the current invention is exemplified first in the following using the K4/K19 tetracycline-responsive ribozyme-switch generated by Beilstein et al. (ACS Synth. Biol., […] (2015) 526-534). This is presented solely as an illustration of the method according to the invention and shall not be construed as limitation thereof. The true scope is set forth in the appended claims.
Whilst the output measurement was different (Luciferase vs GFP) a 1.9× fold-increase at 50 μM tetracycline concentration was achieved (FIG. 4 and FIG. 5).
For testing and screening RNA-switches that control the mRNA degradation of a GFP reporter were cloned into the front plasmid, whereas the red-shifted iRFP gene was cloned into the back plasmid and was used for fluorescence normalization purposes. Expressed genes were placed under the control of a strong promoter (SV40). The RNA-switches constructs were cloned downstream of the GFP gene and before the bovine growth hormone polyadenylation (bGH-polyA) signal sequence. For each construct, both the complementary and anti-complementary strands were ordered as 5′-phosphorylated ssDNA oligonucleotides at Microsynth AG (Belgach, Switzerland) and were annealed by snap cooling at 0.166 μM concentration. […]

[2] = system: Env140-based LNA-regulatable ribozyme (cell lines S69 and S70); experiment: LNA-activation assay and flow cytometry of GFP expression; set-up: species or system CHO; conditions: stable cell lines with inducible/switchable construct and inactive construct; FACS
Description: S69 and S70, were seeded at 50,000 cells/well into a flat-bottom round wells 96-well microplate, in 200 μL media, and incubated in standard static cell culture condition with or without 12.5 μM LNA oligonucleotide added from three to seven days, after which a 70 μL aliquot was removed and analyzed by flow cytometry. Flow cytometry was performed on a 4-6 color BD FACSCanto™ or FACS Celesta™ System using the FITC channel for the evaluation of GFP expression, and APC channel for iRFP expression. The population of cells was gated to avoid cell doublets detected by the forward and side scattering.

| Compound | fold-increase (GFP output) [1] [fold] | shift of GFP fluorescence upon application of the LNA [2] |
| --- | --- | --- |
| CN(C)[C@@H]1C(O)=C(C(N)=O)C(=O)[C@@]2(O)C(O)=C3C(=O)c4c(O)cccc4[C@@](C)(O)[C@H]3C[C@@H]12 [tetracycline] | 1.9 | – |
| ATTGTGCCTGAGGGTAGT (all phosphorothioate, sugars by position and methylation of C not given here; some nucleotides are LNA) | – | fluorescence is shifted |
